Source: patent US7371207B2 (Wyeth, priority 2002, dated 2008)

System: gene expression in the kidney
Assay: GeneChip microarray survey of E2 regulated gene expression, kidney
Description: FIG. 1 depicts a pattern analysis generated by a GeneChip microarray analysis. […] Two hours following the final dose, the mice were euthanized and 13 tissues removed for RNA preparation. Two independent studies were performed, with total RNA pooled from two groups of three animals for each condition. Gene expression was quantified by GeneChip microarrays using murine U74 sub A arrays. Data were analyzed for patterns indicating either ERα or ERβ dependent regulation as shown. […] The number of genes in each tissue that matched the theoretical induction (↑) or repression (↓) patterns for ERα or ERβ are indicated.
FIGS. 2A-2C show a series of bar graphs showing gene expression levels of known genes regulated in the kidney in an ERα pattern. […] Expression was measured in two independent sets of animals, with two groups of animals for each treatment in each study. A gene name abbreviation is shown above each graph, with the corresponding Unigene designation shown below.
One week later, the animals were ovariectomized.
GeneChip—Total RNA was prepared separately from each individual organ by using Trizol (Invitrogen) followed by subsequent repurification on Rneasy columns (Qiagen). In general, two pools of RNA were created using equal amounts of RNA from three mice. For small organs such as pituitary, an equal amount of RNA from six animals was combined.
Target Preparation and Array Hybridization—Total RNA was used to generate biotin labeled cRNA target as described (8) which was hybridized to the murine MG_U74Av2 probe arrays (Affymetrix, Santa Clara, Calif.) for 16 h at 45° C. Eleven biotin-labeled cRNAs at defined concentration were spiked into each hybridization and used to convert average difference values to frequencies expressed as parts per million.
The resulting data set was queried for genes whose regulation was dependent on ERα or ERβ.

SMILES: C[C@]12CC[C@@H]3c4ccc(O)cc4CC[C@H]3[C@@H]1CC[C@@H]2O [E2, 17β-estradiol]
- E2 Expr (/evansm/Kidney, mouse/Study 1, U74v2/WT E2 kidney (81036)) (101979_at, AF055638, growth arrest and DNA-damage-inducible 45 gamma): 42
- E2 Expr (/evansm/Kidney, mouse/Study 1, U74v2/WT E2 kidney (81036)) (102693_f_at, J00389, kallikrein 13, kallikrein 26): 86
- E2 Expr (/evansm/Kidney, mouse/Study 1, U74v2/WT E2 kidney (81036)) (102788_s_at, U70132, paired-like homeodomain transcription factor 2): 23
- E2 Expr (/evansm/Kidney, mouse/Study 1, U74v2/WT E2 kidney (81036)) (103048_at, M12731, neuroblastoma myc-related oncogene 1): 39
- E2 Expr (/evansm/Kidney, mouse/Study 1, U74v2/WT E2 kidney (81036)) (103556_at, AI840158, angiopoletin-like 2): 24
- E2 Expr (/evansm/Kidney, mouse/Study 1, U74v2/WT E2 kidney (81036)) (103729_at, M36775, laminin, alpha 1): 17
- E2 Expr (/evansm/Kidney, mouse/Study 1, U74v2/WT E2 kidney (81036)) (103739_at, AW230977, RIKEN cDNA 1110017N23 gene): 33
- E2 Expr (/evansm/Kidney, mouse/Study 1, U74v2/WT E2 kidney (81036)) (104221_at, AB017189, solute carrier family 7 (cationic amino acid transporter, y+ system), member 5): 61
- E2 Expr (/evansm/Kidney, mouse/Study 1, U74v2/WT E2 kidney (81036)) (104477_at, AW047643, Mm.29940): 15
- E2 Expr (/evansm/Kidney, mouse/Study 1, U74v2/WT E2 kidney (81036)) (104495_f_at, Y00500, kallikrein 5): 115
- E2 Expr (/evansm/Kidney, mouse/Study 1, U74v2/WT E2 kidney (81036)) (104497_f_at, X03994, kallikrein 8): 53
- E2 Expr (/evansm/Kidney, mouse/Study 1, U74v2/WT E2 kidney (81036)) (104550_at, AW123273, ?CYP2S1 Cytochrome P450): 22
- E2 Expr (/evansm/Kidney, mouse/Study 1, U74v2/WT E2 kidney (81036)) (104776_at, AA600617, Mm.33238): 4
- E2 Expr (/evansm/Kidney, mouse/Study 1, U74v2/WT E2 kidney (81036)) (104880_at, AI843154, Mm.33730): 2
- E2 Expr (/evansm/Kidney, mouse/Study 1, U74v2/WT E2 kidney (81036)) (105737_at, AI851277, Mm.39735): 8
- E2 Expr (/evansm/Kidney, mouse/Study 1, U74v2/WT E2 kidney (81036)) (106195_at, AI851948, Mm.22808): 8
- E2 Expr (/evansm/Kidney, mouse/Study 1, U74v2/WT E2 kidney (81036)) (107993_at, AI847249, Mm.27680): 9
- E2 Expr (/evansm/Kidney, mouse/Study 1, U74v2/WT E2 kidney (81036)) (108265_at, AW120464, Mm.54158): 12
- E2 Expr (/evansm/Kidney, mouse/Study 1, U74v2/WT E2 kidney (81036)) (108749_at, AA611885, Mm.23047): 34
- E2 Expr (/evansm/Kidney, mouse/Study 1, U74v2/WT E2 kidney (81036)) (108851_at, AW125899, Ras-like protein): 10
- E2 Expr (/evansm/Kidney, mouse/Study 1, U74v2/WT E2 kidney (81036)) (109176_at, AI846059, RAI17 Retinoic acid Induced 17): 79
- E2 Expr (/evansm/Kidney, mouse/Study 1, U74v2/WT E2 kidney (81036)) (110591_at, AA270831, SH3 domain protien D19): 23
- E2 Expr (/evansm/Kidney, mouse/Study 1, U74v2/WT E2 kidney (81036)) (110767_r_at, AA959550, vascular endothelial growth factor): 37
- E2 Expr (/evansm/Kidney, mouse/Study 1, U74v2/WT E2 kidney (81036)) (110850_at, AA959574, NRIP1 Nuclear receptor interacting protein 1, RIP140): 76
- E2 Expr (/evansm/Kidney, mouse/Study 1, U74v2/WT E2 kidney (81036)) (111046_r_at, AI957367, 17b dehydrogenase A homolog): 17
- E2 Expr (/evansm/Kidney, mouse/Study 1, U74v2/WT E2 kidney (81036)) (113125_at, AI851671, signal transducer and activator of transcription 5B): 31
- E2 Expr (/evansm/Kidney, mouse/Study 1, U74v2/WT E2 kidney (81036)) (114903_at, AI447633, Mm.26357): 96
- E2 Expr (/evansm/Kidney, mouse/Study 1, U74v2/WT E2 kidney (81036)) (116273_at, AW123862, Mm.31953): 7
- E2 Expr (/evansm/Kidney, mouse/Study 1, U74v2/WT E2 kidney (81036)) (117208_at, AI838208, RIKEN cDNA 1110003O08 gene): 37
- E2 Expr (/evansm/Kidney, mouse/Study 1, U74v2/WT E2 kidney (81036)) (129147_r_at, AI931796, similar to TYROSINE-PROTEIN KINASE RECEPTOR TIE-1 PRECURSOR): 6
- E2 Expr (/evansm/Kidney, mouse/Study 1, U74v2/WT E2 kidney (81036)) (131149_at, AW214502, RIKEN cDNA 5033417D07 gene): 7
- E2 Expr (/evansm/Kidney, mouse/Study 1, U74v2/WT E2 kidney (81036)) (131226_at, AI842542, Mm.23157): 8
- E2 Expr (/evansm/Kidney, mouse/Study 1, U74v2/WT E2 kidney (81036)) (132403_at, AI788603, similar to TSC1_RAT HAMARTIN (TUBEROUS SCLEROSIS 1 PROTEIN HOMOLOG)): 19
- E2 Expr (/evansm/Kidney, mouse/Study 1, U74v2/WT E2 kidney (81036)) (133139_at, AW122295, regulator of G-protein signaling 4): 4
- E2 Expr (/evansm/Kidney, mouse/Study 1, U74v2/WT E2 kidney (81036)) (133672_at, AI451032, Mm.32389): 11
- E2 Expr (/evansm/Kidney, mouse/Study 1, U74v2/WT E2 kidney (81036)) (134303_at, AI553493, Mm.35319): 11
- E2 Expr (/evansm/Kidney, mouse/Study 1, U74v2/WT E2 kidney (81036)) (136270_at, AI854101, Highly similar to CRFB MOUSE CORTICOTROPIN-RELEASING FACTOR BINDING PROTEIN PRECURSOR): 12
- E2 Expr (/evansm/Kidney, mouse/Study 1, U74v2/WT E2 kidney (81036)) (137525_at, AI098139, Mm.38027): 4
- E2 Expr (/evansm/Kidney, mouse/Study 1, U74v2/WT E2 kidney (81036)) (139531_at, AW120795, Mm.45188): 40
- E2 Expr (/evansm/Kidney, mouse/Study 1, U74v2/WT E2 kidney (81036)) (162645_at, AI851427, protein kinase, cAMP dependent regulatory, type II beta): 11
- E2 Expr (/evansm/Kidney, mouse/Study 1, U74v2/WT E2 kidney (81036)) (162964_at, AI854153, regulator of G-protein signaling 4): 11
- E2 Expr (/evansm/Kidney, mouse/Study 1, U74v2/WT E2 kidney (81036)) (162969_at, AW123298, Edil3 EGF-like repeats and discordin I-like domains 3): 34
- E2 Expr (/evansm/Kidney, mouse/Study 1, U74v2/WT E2 kidney (81036)) (162976_at, AI838662, RIKEN cDNA 2700007F12 gene): 10
- E2 Expr (/evansm/Kidney, mouse/Study 1, U74v2/WT E2 kidney (81036)) (163186_at, AI852882, RIKEN cDNA 2610510B01 gene): 61
- E2 Expr (/evansm/Kidney, mouse/Study 1, U74v2/WT E2 kidney (81036)) (163224_at, AI843147, IGSF1 Immunoglobulin superfamily, member 1): 27
- E2 Expr (/evansm/Kidney, mouse/Study 1, U74v2/WT E2 kidney (81036)) (163370_at, AI591488, Osbpl3 Oxysterol binding protien-like 3): 10
- E2 Expr (/evansm/Kidney, mouse/Study 1, U74v2/WT E2 kidney (81036)) (163941_at, AI646761, RIKEN cDNA 1110018J23 gene): 71
- E2 Expr (/evansm/Kidney, mouse/Study 1, U74v2/WT E2 kidney (81036)) (164051_at, AV359458, Mm.17850): 195
- E2 Expr (/evansm/Kidney, mouse/Study 1, U74v2/WT E2 kidney (81036)) (164520_f_at, AV302474, Tmprss2 Transmembrane protease, serine 2): 6
- E2 Expr (/evansm/Kidney, mouse/Study 1, U74v2/WT E2 kidney (81036)) (165032_i_at, AV365688, RIKEN cDNA 4933429H19 gene): 42
- E2 Expr (/evansm/Kidney, mouse/Study 1, U74v2/WT E2 kidney (81036)) (165248_f_at, AV035328, placental lactogen 2): 38
- E2 Expr (/evansm/Kidney, mouse/Study 1, U74v2/WT E2 kidney (81036)) (165569_at, AI847273, Mm.22305): 5
- E2 Expr (/evansm/Kidney, mouse/Study 1, U74v2/WT E2 kidney (81036)) (165678_i_at, AI482191, Mm.33178): 11
- E2 Expr (/evansm/Kidney, mouse/Study 1, U74v2/WT E2 kidney (81036)) (165710_at, AA815844, sodium channel, nonvoltage-gated 1 gamma): 9
- E2 Expr (/evansm/Kidney, mouse/Study 1, U74v2/WT E2 kidney (81036)) (165772_at, AI851899, RIKEN cDNA 0610039J01 gene): 29
- E2 Expr (/evansm/Kidney, mouse/Study 1, U74v2/WT E2 kidney (81036)) (165866_f_at, AV291803, ribosomal protein L12): 40
- E2 Expr (/evansm/Kidney, mouse/Study 1, U74v2/WT E2 kidney (81036)) (166021_at, AI481830, Mm.49448): 12
- E2 Expr (/evansm/Kidney, mouse/Study 1, U74v2/WT E2 kidney (81036)) (166843_at, AI851523, Mm.200318): 174
- E2 Expr (/evansm/Kidney, mouse/Study 1, U74v2/WT E2 kidney (81036)) (166849_at, AI853080, Mm.40718): 16
- E2 Expr (/evansm/Kidney, mouse/Study 1, U74v2/WT E2 kidney (81036)) (167023_f_at, AV016619, biglycan): 3
- E2 Expr (/evansm/Kidney, mouse/Study 1, U74v2/WT E2 kidney (81036)) (168876_f_at, AV044014, kallikrein 21): 75
- E2 Expr (/evansm/Kidney, mouse/Study 1, U74v2/WT E2 kidney (81036)) (169068_i_at, AV206066, RIKEN cDNA 4930434J08 gene): 2
- E2 Expr (/evansm/Kidney, mouse/Study 1, U74v2/WT E2 kidney (81036)) (170686_f_at, AV362687, Mm.89845): 58
- E2 Expr (/evansm/Kidney, mouse/Study 1, U74v2/WT E2 kidney (81036)) (170896_at, AV066592, Immune associated nucleotide 4): 3
- E2 Expr (/evansm/Kidney, mouse/Study 1, U74v2/WT E2 kidney (81036)) (171390_i_at, AV299689, Mm.21070): 3
- ABCC3 expression in kidney (mRNA level): induced mRNA levels
- NTT73 expression in kidney (mRNA level): increased mRNA levels
- CIS2 expression in kidney (mouse, in vivo): induction
- COR1 (RDC1) expression in kidney (mouse, in vivo): induced expression
- CYP27B1 expression in kidney (mouse, in vivo): induction
- ELF3 expression in kidney (mouse, in vivo): induced expression
- GNBP3 expression in kidney (mouse, in vivo): induced expression
- PHD2 expression in kidney (mouse, in vivo): induced expression
- RGS3 expression in kidney (mouse, in vivo): induced expression
- STAT5A expression in kidney (mouse, in vivo): induced expression
- STAT5B expression in kidney (mouse, in vivo): induced expression
